Reference: US20090082400A1, “SOLUBLE PYRONE ANALOGS METHODS AND COMPOSITIONS” (priority 2007, published 2009)
“And” between values parts separate entries of the source, which are not always exact repeats. Equal values may be shown once.

Experiments:
rats = assay: Blood glucose levels in rats co-administered tacrolimus and flavonoid-sulfobutylether-7-β-cyclodextrin; assay type: in vivo, rat
Procedure: One set of 5 rats is treated from day 1 to day 25 with inert vehicle 2 intraperitoneally and treated from day 11 to day 25 with inert vehicle 1 intraperitoneally. […] A third set 5 of rats is treated from day 1 to day 25 intraperitoneally with tacrolimus (Prograf®) at 0.5 mg/kg, and treated from day 11 to day 25 with sulfobutylether-7-β-cyclodextrin (Q-Captisol) at 100 mg/kg. A fourth set 5 of rats is treated from day 1 to day 25 intraperitoneally with tacrolimus (Prograft®) at 0.5 mg/kg, and treated from day 11 to day 25 with fisetin-sulfobutylether-7-β-cyclodextrin (Fisetin-Captisol) at 85 mg/kg. The blood glucose level in the rats was measured on days 1, 10, 15, 20, and 25.

[1] = Pharmacokinetic parameters of i.v. tacrolimus in the presence of Q-Captisol in male Lewis rats; assay type: in vivo; conditions: rat, whole blood, iv, tacrolimus 1 mg/kg i.v.; for AUC / Cmax / Vd / clearance / half-life: male, Lewis, 1 mg/kg
Procedure: Male Lewis rats (Charles River Laboratories; 8-9 weeks old; mean weights 282-285 gm) are randomly assigned to treatment groups by a computerized body weight stratification procedure. Quercetin-Sulfobutylether-7-β-cyclodextrin (Q-Captisol) is prepared as a dosing solution using Captisol (B-cyclodextrin-sulfobutyl ether sodium salt; CyDex Inc.) along with 1 molar equivalent of sodium hydroxide. Q-Captisol is administered intraperitoneally (i.p.) at doses of 0, 25, 150, or 300 mg/kg (N=9 rats/dose). Tacrolimus (1 mg/kg i.v.) is dosed at 0.2 ml/kg directly from Prograf 5 mg/ml clinical dosing solutions. […] Whole blood is collected in EDTA tubes from the retro-orbital sinus under 60:40 CO2:O2 anesthesia at 9 time periods using N=3 animals per time period: 5, 15, and 30 min; 1, 2, 3, 6, 8, and 24 hr after administration of tacrolimus. To avoid excessive blood loss from individual animals, 3 blood samples per rat are collected at specified time intervals, so the final samples for analysis contained N=3 blood samples per time period. Whole blood samples are froze on dry ice and stored frozen at −80° C. prior to analysis.
Thawed whole blood (200 μl) is transferred to a separate glass tube with 100 μl of ascomycin (Internal Standard: 100 ng/ml in 10% methanol) and 20 μl of 10% methanol. Samples are treated with 400 μl of 0.1 M zinc sulfate and then 100 μl of acetonitrile to precipitate proteins. Samples are vortexed, then centrifuged at 4000 rpm for 5 min. 500 μl of supernatant is transferred to a clean glass tube containing 1000 μl of water and vortexed thoroughly. Mixtures are loaded onto a 100 mg C18 cartridge (SPE column) preconditioned with 1 ml of methanol, followed by 1 ml of water. The cartridge is washed 2× with 1 ml water, followed by 100 μl methanol. Tacrolimus and Internal Standard are eluted with 500 μl of methanol into an HPLC vial containing 1000 μl of 10 mM ammonium acetate. Samples are vortexed, then centrifuged at 4000 rpm for 10 min. A 10 μl aliquot of the clarified supernatant is injected directly onto LC/MS/MS for analysis. Calibration standards are prepared in blank rat whole blood at 1, 2, 5, 5, 10, 25, 50, 62.5, and 75 ng/ml and processed as described for the samples from rats dosed with tacrolimus.
The tacrolimus concentrations in plasma are determined using validated assay methods via an LC/MS/MS analytical technique. Major pharmacokinetic parameters, including area under the concentration versus time curve from time zero to the time of last measurable concentration (AUCt), area under the concentration versus time curve from time zero to infinite time (AUCinf), maximum observed concentration (Cmax), time to reach maximum observed blood or plasma concentration (Tmax), apparent terminal elimination rate constant (Kcl), clearance (CL), and half-life (T1/2), are determined from the plasma concentration data. […] These changes are believed to be caused by drug re-distribution from non-targeted organs to systemic circulation.

[2] = 5 rats, Prograf 0.5 mg/kg i.p. once daily from Day 1 + Vehicle 1 from Day 11
[3] = rats, Prograf 0.5 mg/kg i.p. + Vehicle 1
[4] = rats, Prograf 0.5 mg/kg i.p. once daily from Day 1 + Vehicle 1 from Day 11
[5] = Q-Captisol Dose 0 mg/kg i.p. 30 min before
[6] = Q-Captisol Dose 25 mg/kg i.p. 30 min before
[7] = Q-Captisol Dose 150 mg/kg i.p. 30 min before
[8] = Q-Captisol Dose 300 mg/kg i.p. 30 min before

Which “Blood glucose Day 1, Mean” value (rats; [2]) does the source give for `C=CC[C@@H]1/C=C(\C)C[C@H](C)C[C@H](OC)[C@H]2O[C@@](O)(C(=O)C(=O)N3CCCC[C@H]3C(=O)O[C@H](/C(C)=C/[C@@H]3CC[C@@H](O)[C@H](OC)C3)[C@H](C)[C@@H](O)CC1=O)[C@H](C)C[C@@H]2OC` [tacrolimus] here?
The value was 1.27 g/L.

What about the “Blood glucose Day 10, Mean” value (rats; [2]) of the same compound?
Its value is 1.49 g/L.

And the “Blood glucose Day 15, Mean” value (rats; [2])?
Its value is 2.54 g/L.

And the “Blood glucose Day 20, Mean” value (rats; [2])?
Its value is 2.93 g/L.

And the “Blood glucose Day 25, Mean” value (rats; [2])?
Its value is 2.55 g/L.

And the “Blood glucose, Mean change from Day 1, Day 10” value (rats; [3])?
Its value is “+0.22 g/l”.

What about the “Blood glucose, Mean change from Day 1, Day 15” value (rats; [3]) of the same compound?
The value was “+1.27 g/l”.

What about the “Blood glucose, Mean change from Day 1, Day 20” value (rats; [3]) of the same compound?
Its value is “+1.66 g/l”.

What about the “Blood glucose, Mean change from Day 1, Day 25” value (rats; [3]) of the same compound?
Its value is “+1.28 g/l”.

What about the “Blood glucose, Mean change from all vehicle control, Day 1” value (rats; [3]) of the same compound?
The value was -0.10 g/L.

What about the “Blood glucose, Mean change from all vehicle control, Day 10” value (rats; [3]) of the same compound?
The value was “+0.23 g/l”.

And the “Blood glucose, Mean change from all vehicle control, Day 15” value (rats; [3])?
The value was “+1.27 g/l”.

What about the “Blood glucose, Mean change from all vehicle control, Day 20” value (rats; [3]) of the same compound?
The value was “+1.81 g/l”.

And the “Blood glucose, Mean change from all vehicle control, Day 25” value (rats; [3])?
The value was “+1.38 g/l”.

And the “Blood glucose Day 1, individual rats” value (rats; [4])?
The value was 1.16 g/l (2×) and 1.34 g/l and 1.22 g/l and 1.47 g/l.

What about the “Blood glucose Day 10, individual rats” value (rats; [4]) of the same compound?
Its value is 1.30 g/L and 1.39 g/L and 1.40 g/L and 1.09 g/L and 2.25 g/L.

And the “Blood glucose Day 15, individual rats” value (rats; [4])?
Its value is 3.72 g/L and 1.67 g/L and 2.31 g/L and 1.97 g/L and 3.02 g/L.

What about the “Blood glucose Day 20, individual rats” value (rats; [4]) of the same compound?
Its value is 2.79 g/L and 3.70 g/L and 2.97 g/L and 2.41 g/L and 2.77 g/L.

What about the “Blood glucose Day 25, individual rats” value (rats; [4]) of the same compound?
The value was 0.97 g/L and 3.16 g/L and 1.69 g/L and 2.98 g/L and 3.96 g/L.

And the AUC [1, 5]?
The AUC was 645 ng·h/mL.

What about the Cmax [1, 5] of the same compound?
The Cmax was 418 ng/mL.

What about the Vd [1, 5] of the same compound?
Its Vd is 18.6 L/kg.

And the clearance [1, 5]?
The clearance was 22.9 mL/min/kg.

And the half-life [1, 5]?
The half-life was 9.4 h.

What about the AUC [1, 6] of the same compound?
Its AUC is 635 ng·h/mL.

And the Cmax [1, 6]?
Its Cmax is 426 ng/mL.

And the Vd [1, 6]?
The Vd was 16 L/kg.

What about the clearance [1, 6] of the same compound?
Its clearance is 23.3 mL/min/kg.

And the half-life [1, 6]?
The half-life was 7.9 h.

What about the AUC [1, 7] of the same compound?
Its AUC is 980 ng·h/mL.

And the Cmax [1, 7]?
Its Cmax is 781 ng/mL.

What about the Vd [1, 7] of the same compound?
The Vd was 10.9 L/kg.

What about the clearance [1, 7] of the same compound?
Its clearance is 15.5 mL/min/kg.

And the half-life [1, 7]?
The half-life was 8.1 h.

What about the AUC [1, 8] of the same compound?
Its AUC is 1240 ng·h/mL.

And the Cmax [1, 8]?
Its Cmax is 877 ng/mL.

What about the Vd [1, 8] of the same compound?
The Vd was 8.2 L/kg.

What about the clearance [1, 8] of the same compound?
The clearance was 12.2 mL/min/kg.

What about the half-life [1, 8] of the same compound?
The half-life was 7.7 h.

What about the Tmax [1, 7] of the same compound?
Its Tmax is 4.98 min.
